Structures can show the parent of a compound that is named as a salt.
Target: T1, Progesterone Receptor (PR) (Homo sapiens, UniProt P06401)
T1 construct: endogenous in cells; host or cells: T47D human breast mammary carcinoma cells
T1 sequence (P06401 1-933): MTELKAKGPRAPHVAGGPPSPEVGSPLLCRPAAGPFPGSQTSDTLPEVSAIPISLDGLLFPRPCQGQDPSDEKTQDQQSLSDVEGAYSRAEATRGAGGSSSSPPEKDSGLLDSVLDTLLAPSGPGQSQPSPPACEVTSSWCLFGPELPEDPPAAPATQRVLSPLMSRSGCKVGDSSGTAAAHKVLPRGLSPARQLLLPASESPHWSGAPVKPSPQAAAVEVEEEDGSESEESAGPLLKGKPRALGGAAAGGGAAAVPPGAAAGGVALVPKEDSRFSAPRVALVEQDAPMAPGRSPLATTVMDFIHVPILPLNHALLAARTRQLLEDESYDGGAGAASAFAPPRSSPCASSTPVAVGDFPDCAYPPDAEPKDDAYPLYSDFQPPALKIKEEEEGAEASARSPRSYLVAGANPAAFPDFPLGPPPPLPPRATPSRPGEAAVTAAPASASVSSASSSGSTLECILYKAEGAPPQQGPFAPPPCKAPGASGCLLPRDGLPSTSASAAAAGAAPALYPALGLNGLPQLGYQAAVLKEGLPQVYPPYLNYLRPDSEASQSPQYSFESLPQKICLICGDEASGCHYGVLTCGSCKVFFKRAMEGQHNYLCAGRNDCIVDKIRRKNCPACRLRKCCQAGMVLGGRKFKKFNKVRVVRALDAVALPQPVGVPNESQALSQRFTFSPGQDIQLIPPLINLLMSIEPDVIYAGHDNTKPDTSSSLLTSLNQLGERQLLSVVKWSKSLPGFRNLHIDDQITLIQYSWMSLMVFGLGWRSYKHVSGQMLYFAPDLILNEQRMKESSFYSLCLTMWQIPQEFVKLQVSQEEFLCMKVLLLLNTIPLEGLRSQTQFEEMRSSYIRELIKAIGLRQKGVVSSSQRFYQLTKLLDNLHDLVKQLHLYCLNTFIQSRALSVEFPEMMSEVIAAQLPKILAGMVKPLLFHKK
Experiment: In vitro functional assay for progesterone receptor (PR) antagonists: inhibition of progesterone-induced alkaline phosphatase expression in T47D cells
Type: cell-based
Settings: antagonist format, 5 nM progesterone, Ki calculated from IC50 with the Cheng-Prusoff equation
Description: 1.0 In vitro Functional Assay for Progesterone Receptor (PR) Antagonists, Agonists and Modulators
The assay for PR antagonism takes advantage of the extensively reported modulation of alkaline phosphatase (AP) expression in human breast T47D mammary carcinoma cells {Beck et al., D. P. (1993). The progesterone antagonist RU486 acquires agonist activity upon stimulation of cAMP signalling pathways. Proc Natl Acad Sci USA 90, 4441-4445; Fensome et al. (2002). New progesterone receptor antagonists: 3,3-disubstituted-5-aryloxindoles. Bioorg Med Chem Lett 12, 3487-3490; Zhang et al., (2002a). 6-Aryl-1,4-dihydro-benzo d1,3oxazin-2-ones: a novel class of potent, selective, and orally active nonsteroidal progesterone receptor antagonists. Journal of Medicinal Chemistry 45, 4379-4382; Zhang et al., (2003). Novel 6-aryl-1,4-dihydrobenzo d oxazine-2-thiones as potent, selective, and orally active nonsteroidal progesterone receptor agonists. Bioorganic & Medicinal Chemistry Letters 13, 1313-1316; Zhang et al., (2002b). Potent nonsteroidal progesterone receptor agonists: synthesis and SAR study of 6-aryl benzoxazines. Bioorganic & Medicinal Chemistry Letters 12, 787-790; Zhang, Z. et al., (2000). In vitro characterization of trimegestone: a new potent and selective progestin. Steroids 65, 637-643}. […] In the absence of progesterone any agonist activity is also observed as an induction of AP activity. By running the assay in two formats (+/−progesterone (P4)), compounds behaving as PR antagonists, agonists, partial agonists or modulators with mixed agonist/antagonist activity can be identified.
Briefly, T47D cells are grown by propagating in DMEM with phenol red+10% FCS+2 mM Glutamine at 37° C./5% CO2. At 70-80% confluence, the media is exchanged for phenol red free DMEM+5% CS-FCS (Assay media). Cells are incubated overnight in assay media then harvested and frozen in assay media containing 10% DMSO at 1.5e7 cells/mL in 2 mL aliquots using a Planer and immediately stored in liquid nitrogen. Vials are removed from liquid nitrogen storage and immediately thawed in a water bath at 37° C. The cell suspension is added dropwise to 20 mL of assay media, then the tube centrifuged at 1000 rpm for 4 minutes, the supernatant is discarded and the pellet re-suspended in 20 mL assay media. T47D cells are then plated at 8750 cells/well in 35 μL assay media in sufficient white solid 384 well TC plates for the assay. For the agonist format assay a further 10 μL of assay media is added to each well. These plates are then cultured for 3-6 hours at 37° C./5% CO2 before compound addition.
Test substances are prepared by in 100% DMSO, half log concentrations from 4 mM in 384 well plates 5 μL/well (referred to here as ‘grandmother plates’). Progesterone is 100 μM made up in ethanol and PBS (i.e. add 1 mL ethanol to progesterone initially to help dissolving) and stored in 0.5-1 mL aliquots at −20° C.
Using a multidrop (Thermolabsystems), 60 μL/well of buffer is added to a 384 well plate—this will be the ‘mother plate’. _Add 45 μL well buffer to grandmother plate using the multidrop (=400 μM 10% DMSO dilution). Mixed and spun to remove air bubbles. • 20 μL is taken from the grandmother plate (400 μM 10% DMSO) and added to the mother plate (=100 μM 2.5% DMSO). Mixed and spun to remove air bubbles Preparation of Max/Min:
Antagonist Min: (Checker Pattern on Plate Map) 1 μM RU-486 (FAC 0.1 μM) • 50 μL of 0.2 mM RU-486 • 10 mL Diluent Addition of Test Substance to Cell Plates • The PlateMate Plus was used to add 5 μL MAX/MIN to cell plates • Then 5 μL test substances are added from the mother plate (after removing max/min PlateMate tips: columns 1 and 24)
Addition of Agonist (5 nM Progesterone FAC) for Antagonist Format Only
25 nM progesterone in assay media is prepared from 100 μM stock (12.5 μL progesterone/50 mL media), from which 10 μL per well is transferred to the assay plate using the PlateMate Plus (already containing cells & compound). […]

Structure (SMILES) | Ki
CC(C)NC(=O)c1c(C2CC2)c(-c2ccc(C#N)cc2)nn1C(C)C [Example 4, 3-(4-Cyano-phenyl)-4-cyclopropyl-N,1-diisopropyl-1H-pyrazole-5-carboxamide] | 7.06 nM
CC(C)n1nc(-c2ccc(C#N)cc2)c(C2CC2)c1C(=O)N[C@@H]1CCN(C(=O)OC(C)(C)C)C1 [Example 5, tert-Butyl (3R)-3-({[3-(4-cyanophenyl)-4-cyclopropyl-1-isopropyl-1H-pyrazol-5-yl]carbonyl}amino)-pyrrolidine-1-carboxylate] | 7.92 nM
CC(C)n1nc(-c2ccc(C#N)cc2)c(C2CC2)c1C(=O)NC1CN(C(=O)OC(C)(C)C)C1 [Example 7, tert-Butyl 3-({[3-(4-cyanophenyl)-4-cyclopropyl-1-isopropyl-1H-pyrazol-5-yl]carbonyl}amino)azetidine-1-carboxylate] | 9.73 nM
CC(C)n1nc(-c2ccc(C#N)cc2)c(C2CC2)c1C(=O)N[C@@H]1CCNC1 [Example 8, 3-(4-Cyanophenyl)-4-cyclopropyl-1-isopropyl-N-[(3R)-pyrrolidin-3-yl]-1H-pyrazole-5-carboxamide hydrochloride] | 162 nM
CC(C)n1nc(-c2ccc(C#N)cc2)c(C2CC2)c1C(=O)N[C@H]1CCNC1 [Example 9, 3-(4-Cyanophenyl)-4-cyclopropyl-1-isopropyl-N-[(3S)-pyrrolidin-3-yl]-1H-pyrazole-5-carboxamide hydrochloride] | 836 nM
CC(C)n1nc(-c2ccc(C#N)cc2)c(C2CC2)c1C(=O)NC1CNC1 [Example 10, N-Azetidin-3-yl-3-(4-cyanophenyl)-4-cyclopropyl-1-isopropyl-1H-pyrazole-5-carboxamide] | 285 nM
CC(C)C(=O)N1CC[C@@H](NC(=O)c2c(C3CC3)c(-c3ccc(C#N)cc3)nn2C(C)C)C1 [Example 11, 3-(4-Cyanophenyl)-4-cyclopropyl-N-[(3R)-1-isobutyrylpyrrolidin-3-yl]-1-isopropyl-1H-pyrazole-5-carboxamide] | 18.6 nM
CC(C)n1nc(-c2ccc(C#N)cc2)c(C2CC2)c1C(=O)N[C@@H]1CCN(S(C)(=O)=O)C1 [Example 13, 3-(4-Cyanophenyl)-4-cyclopropyl-1-isopropyl-N-[(3R)-1-(methylsulfonyl)pyrrolin-3-yl]-1H-pyrazole-5-carboxamide] | 34.8 nM
CC(C)C(=O)N1CC[C@H](NC(=O)c2c(C3CC3)c(-c3ccc(C#N)cc3)nn2C(C)C)C1 [Example 14, 3-(4-Cyanophenyl)-4-cyclopropyl-N-[(3S)-1-isobutyrylpyrrolidin-3-yl]-1-isopropyl-1H-pyrazole-5-carboxamide] | 302 nM
CCC(=O)N1CC[C@H](NC(=O)c2c(C3CC3)c(-c3ccc(C#N)cc3)nn2C(C)C)C1 [Example 15, 3-(4-Cyanophenyl)-4-cyclopropyl-1-isopropyl-N-[(3S)-1-propionylpyrrolidin-3-yl]-1H-pyrazole-5-carboxamide] | 280 nM

More lines, now with the values ahead:

Ki | Structure (SMILES)
42.8 nM | CC(C)C(=O)N1CC(NC(=O)c2c(C3CC3)c(-c3ccc(C#N)cc3)nn2C(C)C)C1 [Example 16, 3-(4-Cyanophenyl)-4-cyclopropyl-N-(1-isobutyrylazetidin-3-yl)-1-isopropyl-1H-pyrazole-5-carboxamide]
42.2 nM | CCC(=O)N1CC(NC(=O)c2c(C3CC3)c(-c3ccc(C#N)cc3)nn2C(C)C)C1 [Example 17, 3-(4-Cyanophenyl)-4-cyclopropyl-1-isopropyl-N-(1-propionylazetidin-3-yl)-1H-pyrazole-5-carboxamide]
38.2 nM | CC(C)n1nc(-c2ccc(C#N)cc2)c(C2CC2)c1C(=O)NC1CN(S(C)(=O)=O)C1 [Example 18, 3-(4-Cyanophenyl)-4-cyclopropyl-1-isopropyl-N-[1-(methylsulfonyl)azetidin-3-yl]-1H-pyrazole-5-carboxamide]
51.4 nM | CC(=O)N1CC(NC(=O)c2c(C3CC3)c(-c3ccc(C#N)cc3)nn2C(C)C)C1 [Example 19, N-(1-Acetylazetidin-3-yl)-3-(4-cyanophenyl)-4-cyclopropyl-1-isopropyl-1H-pyrazole-5-carboxamide]
3.78 nM | CCCNC(=O)c1c(C2CC2)c(-c2ccc(C#N)cc2)nn1C(C)C [Example 20, 3-(4-Cyanophenyl)-4-cyclopropyl-1-isopropyl-N-propyl-1H-pyrazole-5-carboxamide]
8.27 nM | COCCCNC(=O)c1c(C2CC2)c(-c2ccc(C#N)cc2)nn1C(C)C [Example 21, 3-(4-Cyanophenyl)-4-cyclopropyl-1-isopropyl-N-(3-methoxypropyl)-1H-pyrazole-5-carboxamide]
6.67 nM | CC(C)n1nc(-c2ccc(C#N)cc2)c(C2CC2)c1C(=O)NCCC(F)(F)F [Example 22, 3-(4-Cyanophenyl)-4-cyclopropyl-1-isopropyl-N-(3,3,3-trifluoropropyl)-1H-pyrazole-5-carboxamide]
10.2 nM | CC(C)n1nc(-c2ccc(C#N)cc2)c(C2CC2)c1C(=O)NCc1ccncn1 [Example 23, 3-(4-Cyanophenyl)-4-cyclopropyl-1-isopropyl-N-(pyrimidin-4-ylmethyl)-1H-pyrazole-5-carboxamide]
19.4 nM | CC(C)n1nc(-c2ccc(C#N)cc2)c(C2CC2)c1C(=O)N[C@H]1CCOC1=O [Example 24, 3-(4-Cyanophenyl)-4-cyclopropyl-1-isopropyl-N-[(3S)-2-oxotetrahydrofuran-3-yl]-1H-pyrazole-5-carboxamide]
24.5 nM | CNC(=O)CNC(=O)c1c(C2CC2)c(-c2ccc(C#N)cc2)nn1C(C)C [Example 25, 3-(4-Cyanophenyl)-4-cyclopropyl-1-isopropyl-N-[2-(methylamino)-2-oxoethyl]-1H-pyrazole-5-carboxamide]
86.1 nM | CC(C)n1nc(-c2ccc(C#N)cc2)c(C2CC2)c1C(=O)NCCCN1CCCC1=O [Example 26, 3-(4-Cyanophenyl)-4-cyclopropyl-1-isopropyl-N-[3-(2-oxopyrrolidin-1-yl)propyl]-1H-pyrazole-5-carboxamide]
161 nM | COC(=O)C(C)(C)NC(=O)c1c(C2CC2)c(-c2ccc(C#N)cc2)nn1C(C)C [Example 27]

— US8232269B2, “Amide compounds useful in therapy” (Pfizer Inc., priority 2008, dated 2012)
